Experimental data reported in patent publication US20110268729A1, “TREATMENT OF AMYOTROPHIC LATERAL SCLEROSIS BY NOGO-A-ANTAGONIST” (priority 2008, published 2011).

Test system: SOD1^G93A mice
Test: In vivo ALS model muscle physiology study with 2A10 and riluzole
Parameters: species or system mouse
Procedure: Fresh solutions were prepared once a week with the total consumed volume measured in order to ensure a constant daily and weekly dose.

Nc1nc2ccc(OC(F)(F)F)cc2s1 [Riluzole, 2-Amino-6-(trifluoromethoxy)benzothiazole]
TA maximum tetanic force (day 90, relative to SOD1-B vehicle group, riluzole 30 mg/kg p 0.0607, anti-Nogo-A 30 mg/kg p 0.1219, combination p 0.039): failed to reach statistical significance
TA time to 1/2 relaxation (day 90, vs SOD1 vehicle, riluzole plus 3 mg/kg anti-Nogo-A p value 0.0212): trend to normalisation
